Data as given in ChEMBL document CHEMBL1201862, “PubChem BioAssay data set” (2004).
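In this assay, cells in 96-well plates receive the compound at five concentrations for 48 hours. Endpoints are linearly interpolated between the surrounding concentrations. The concentration for 50% growth inhibition is given as GI50.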 Activity calls are given as the source filed them. No stated cut-off is given here; in the data, active = GI50 up to about 1.1 µM and inactive = higher.

How the values were obtained:
Test in all cases: NCI tumour cell line growth inhibition, 48 h
A549 = system: A549
COLO 205 = system: COLO 205
EKVX = system: EKVX
HCT-116 = system: HCT-116
HL-60 = system: HL-60
HOP-92 = system: HOP-92
HT-29 = system: HT-29
KM12 = system: KM12
NCI-H23 = system: NCI-H23
OVCAR-3 = system: OVCAR-3
OVCAR-4 = system: OVCAR-4
OVCAR-5 = system: OVCAR-5
OVCAR-8 = system: OVCAR-8
SK-OV-3 = system: SK-OV-3
TK-10 = system: TK-10
UACC-62 = system: UACC-62
786-0 = system: 786-0

Measured: GI50

COc1ccc(S(=O)(=O)c2ccccc2[N+](=O)[O-])cc1
inactive: A549 > 100 µM | COLO 205 > 100 µM | EKVX > 100 µM | HCT-116 > 100 µM | HL-60 55.6 µM | HOP-92 > 100 µM | HT-29 > 100 µM | KM12 > 100 µM | NCI-H23 98.9 µM | OVCAR-3 98.6 µM | OVCAR-4 > 100 µM | OVCAR-5 > 100 µM | OVCAR-8 > 100 µM | SK-OV-3 > 100 µM | TK-10 > 100 µM | UACC-62 > 100 µM

CC1CCCP(=O)(c2ccccc2)CC1 (stereo not given)
inactive: 786-0 > 100 µM | A549 > 100 µM | COLO 205 > 100 µM | EKVX > 100 µM | HT-29 > 100 µM | KM12 > 100 µM | NCI-H23 > 100 µM | OVCAR-3 > 100 µM | OVCAR-4 > 100 µM | OVCAR-5 > 100 µM | OVCAR-8 > 100 µM | SK-OV-3 > 100 µM | TK-10 > 100 µM | UACC-62 > 100 µM

CC(=O)N[C@@H]1C(O)CN2C(=O)C(=O)O[C@H](C(O)CO)[C@@H]12 (stereo not given in full)
inactive: 786-0 > 100 µM | A549 > 100 µM | COLO 205 > 100 µM | EKVX > 100 µM | HCT-116 > 100 µM | HL-60 > 100 µM | HOP-92 > 100 µM | HT-29 > 100 µM | KM12 > 100 µM | OVCAR-3 > 100 µM | OVCAR-5 > 100 µM | OVCAR-8 > 100 µM | SK-OV-3 > 100 µM | TK-10 > 100 µM

Cc1ccc(/C=C/C(=O)c2ccc([N+](=O)[O-])cc2)cc1
inactive: 786-0 > 100 µM | A549 > 100 µM | COLO 205 > 100 µM | EKVX > 100 µM | HCT-116 > 100 µM | HL-60 90.6 µM | HT-29 > 100 µM | KM12 > 100 µM | NCI-H23 30.9 µM | OVCAR-3 > 100 µM | OVCAR-4 > 100 µM | OVCAR-5 > 100 µM | OVCAR-8 > 100 µM | SK-OV-3 > 100 µM | TK-10 > 100 µM | UACC-62 > 100 µM

O=C(NN1C(=O)CSC1c1ccc(Cl)c(Cl)c1)c1ccncc1 (stereo not given)
inactive: A549 58.1 µM | COLO 205 > 100 µM | EKVX > 100 µM | HL-60 37.8 µM | HT-29 60.1 µM | KM12 38.1 µM | NCI-H23 84.7 µM | OVCAR-4 54.1 µM | OVCAR-5 > 100 µM | OVCAR-8 86.7 µM | SK-OV-3 > 100 µM | TK-10 57.7 µM | UACC-62 31.8 µM

COc1ccc(NC(=O)CSc2nnc(Cc3ccccc3)o2)cc1
inactive: 786-0 > 100 µM | A549 > 100 µM | COLO 205 94.8 µM | HCT-116 > 100 µM | HT-29 74.1 µM | KM12 > 100 µM | NCI-H23 61.5 µM | OVCAR-3 78.3 µM | OVCAR-4 > 100 µM | OVCAR-5 > 100 µM | OVCAR-8 > 100 µM | SK-OV-3 > 100 µM | TK-10 > 100 µM | UACC-62 > 100 µM

COc1nc(N)c(NC(C)=O)c(=O)n1C
inactive: A549 > 100 µM | COLO 205 > 100 µM | EKVX > 100 µM | HCT-116 > 100 µM | HL-60 > 100 µM | HOP-92 39.9 µM | HT-29 > 100 µM | KM12 > 100 µM | NCI-H23 > 100 µM | OVCAR-4 > 100 µM | OVCAR-5 > 100 µM | OVCAR-8 > 100 µM | TK-10 > 100 µM

COC1(OC)CCC2(C)OC(c3ccccc3)C1O2 (stereo not given)
inactive: 786-0 > 100 µM | A549 > 100 µM | COLO 205 > 100 µM | EKVX > 100 µM | HCT-116 > 100 µM | HL-60 > 100 µM | HT-29 > 100 µM | KM12 > 100 µM | NCI-H23 > 100 µM | OVCAR-3 > 100 µM | OVCAR-4 > 100 µM | OVCAR-5 > 100 µM | OVCAR-8 > 100 µM | SK-OV-3 > 100 µM | TK-10 > 100 µM | UACC-62 > 100 µM

COc1ccc(-c2cc(N3CCN(c4ccc(Cl)cc4)CC3)c(C#N)c(=O)o2)cc1
inactive: A549 10.1 µM | COLO 205 > 100 µM | EKVX 11.4 µM | HCT-116 12.6 µM | HL-60 > 100 µM | HOP-92 > 100 µM | HT-29 > 100 µM | KM12 > 100 µM | NCI-H23 21.8 µM | OVCAR-4 2.45 µM | OVCAR-5 > 100 µM | OVCAR-8 5.28 µM | TK-10 16.5 µM

Cc1ccc(NC(=O)/C(CC(=O)c2c[n+]([O-])c3ccccc3[n+]2[O-])=N\NC(=O)C[n+]2ccccc2)cc1
inactive: 786-0 > 100 µM | A549 > 100 µM | COLO 205 > 100 µM | EKVX > 100 µM | HCT-116 > 100 µM | HL-60 35 µM | HT-29 > 100 µM | KM12 > 100 µM | OVCAR-3 > 100 µM | OVCAR-4 64.1 µM | OVCAR-5 > 100 µM | OVCAR-8 > 100 µM | SK-OV-3 > 100 µM | TK-10 > 100 µM | UACC-62 > 100 µM

COC(=O)Cc1cc(=O)n2c([nH]c3ccccc32)c1C#N
inactive: 786-0 > 100 µM | A549 > 100 µM | COLO 205 > 100 µM | EKVX > 100 µM | HCT-116 > 100 µM | HL-60 > 100 µM | HT-29 > 100 µM | KM12 > 100 µM | NCI-H23 > 100 µM | OVCAR-3 > 100 µM | OVCAR-4 > 100 µM | OVCAR-5 > 100 µM | OVCAR-8 > 100 µM | SK-OV-3 36.1 µM | TK-10 > 100 µM

c1c(N2CCOCC2)s[s+]c1N1CCOCC1
inactive: 786-0 > 100 µM | A549 > 100 µM | EKVX > 100 µM | HCT-116 > 100 µM | HL-60 > 100 µM | HOP-92 > 100 µM | HT-29 > 100 µM | KM12 > 100 µM | NCI-H23 > 100 µM | OVCAR-4 > 100 µM | OVCAR-5 > 100 µM | OVCAR-8 > 100 µM | SK-OV-3 > 100 µM | TK-10 76.6 µM | UACC-62 > 100 µM

Cc1ccc(Oc2ccc(C)cc2[N+](=O)[O-])cc1
inactive: A549 92.9 µM | COLO 205 > 100 µM | EKVX 48.3 µM | HCT-116 53.6 µM | HL-60 26.4 µM | HOP-92 28.6 µM | HT-29 40.7 µM | KM12 > 100 µM | NCI-H23 31.5 µM | OVCAR-3 55.8 µM | OVCAR-4 6.12 µM | OVCAR-5 38.2 µM | OVCAR-8 > 100 µM | SK-OV-3 > 100 µM | TK-10 > 100 µM | UACC-62 > 100 µM
